Data: US8758775B2 (priority 2005, dated 2014)

Columns and labels:
[1] = test system: E. coli-sta enterotoxin induced diarrhoea; set-up: species or system NMRI mice; details: mouse, in vivo
[2] = test system: E. coli-sta enterotoxin induced diarrhoea; set-up: species or system NMRI mice; details: mouse, in vivo; remark: listed apart in the source
[3] = test system: intestinal system's proteolytic capacity and disacaridase potential; details: cited from earlier work
[4] = test system: heartburn in patients suffering from endoscopic negative GORD; details: in vivo

Molecule | mean number of stools passed [1] | net stool weight [1] | frequency of defecation [2] | reduction in stool weight [2] | intestinal system's proteolytic capacity and disacaridase potential [3] | Reported side-effects: Bloatedness [4] | Reported side-effects: Constipation [4] | Reported side-effects: Nausea [4] | Reported side-effects: No side-effects [4] | Reported side-effects: Sleeplessness [4]
CN(C)C(=O)C(CCN1CCC(O)(c2ccc(Cl)cc2)CC1)(c1ccccc1)c1ccccc1 [loperamide] | reduction | reduction | significantly reduced (P<0.05) | significant (P<0.05) | – | – | – | – | – | –
clinoptilolite | – | – | – | – | not modified | 3/10 | 2/10 | 1/10 | 4/10 | 1/10
